The source of these data is patent US20100234385A1 (Kaneka Corporation, priority 2006, published 2010).

For one data set, the system named is melanocytes. Nature of the data set: Inhibitory effect on melanocytes in vitro. Type of data set: cell-based.
The nature of data set [1]: BH4 concentration in the brain after oral administration for 3 consecutive days to hph-1 mice. The conditions noted are these: 5 mg/kg oral, 3 consecutive days at 24-hour intervals, 2.5 hours after final dosing, versus non-dose group.
Procedure: The mice were biopsied 2.5 hours after the final dosing, their brains were excised and BH4 levels were quantified in the same manner as Example 1.
The conditions of data set [2]: Sawabe et al. 2004, cited from earlier work.

For the compound “6-(L-erythro-1,2-dihydroxypropyl)-pterin or 7-(L-erythro-1,2-dihydroxypropyl)-pterin [biopterin]”, the “effects on melanocytes in vitro” value in the data set on melanocytes is “inhibitory effects”.
On to `C[C@H](O)[C@H](O)[C@H]1CNc2nc(N)[nH]c(=O)c2N1` [BH4, L-erythro-5,6,7,8-tetrahydrobiopterin], for which the “intracerebral BH4 concentrations” value in data set [1] was “changes are not observed”. The “time of sharp peak of BH4 after administration” value in data set [2] was 0.5 to 1 h. In addition, in data set [2] (after administration of BH4), the “time until BH4 concentration returns to the original level” value is listed as “about 4 hours”.
